From the supplement of paper PMC11451515

Assays:
P12-Ichikawa [1] = assay: AUC of viability dose-response curve (% viability x log10 dose units); higher = less sensitive; settings: 48 h
Procedure, shortened: (§1)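 Seeding of medium-adapted leukemia cells was at 500 or 1000 cells/well in 1536-well plates, followed by 48 h at 37°C with library compounds in DMSO at 11 threefold doses from 47 μM to 0.79 nM. CellTiter-Glo One luminescence was normalised per plate to DMSO and cell-free wells and fitted as a four-parameter log-logistic function of log10 dose. Area under the curve was integrated by trapezoidal rule, with curves exceeding full viability scaled and curves failing quality control removed.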

NOMO1 = assay: as above; settings: 48 h
Procedure, shortened: as §1

SEM cells [2] = assay: as above; settings: 48 h
Procedure, shortened: as §1

SEM cells [3] = assay: cell viability relative to DMSO control; higher = less cytotoxic; settings: 48 h
Procedure, shortened: (§2)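 Leukemia cells (NOMO1 or SEM, 500 cells/well; P12-Ichikawa, 1000 cells/well) were seeded in 5 μl in 1536-well plates after at least four passages of adaptation to each medium. They received library compounds in DMSO by pin dosing, 11 threefold points from 47 μM to 0.79 nM. Luminescence with CellTiter-Glo One was read after 48 h at 37°C. Viability is stated per plate relative to DMSO wells, with cell-free wells as background.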

P12-Ichikawa [4] = assay: as above; settings: RPMI 5 mM glucose + 10% dialyzed FBS, 48 h
Procedure, shortened: as §2

O=c1c(-c2ccc(O)cc2)coc2cc(O[C@@H]3O[C@H](CO)[C@@H](O)[C@H](O)[C@H]3O)ccc12
AUC of viability dose-response curve
Settings | NOMO1 | P12-Ichikawa [1] | SEM cells [2]
HPLM + 10% dialyzed FBS | 456 | 473 | 459
RPMI 5 mM glucose + 10% FBS | 468 | 469 | 450
RPMI 5 mM glucose + 10% dialyzed FBS | 467 | 470 | 449

cell viability [%], SEM cells [3]
Settings | HPLM + 10% dialyzed FBS | RPMI 5 mM glucose + 10% dialyzed FBS
0.000781 µM | 114 | 124
0.00234 µM | 115 | 124
0.00702 µM | 115 | 128
0.0211 µM | 122 | 119
0.0632 µM | 114 | 135
0.19 µM | 120 | 137
0.569 µM | 123 | 126
1.71 µM | 110 | 111
5.12 µM | 121 | 118
15.4 µM | 91.1 | 100
46.1 µM | 79.1 | 70.1

C[C@]12C[C@H](O)[C@H]3[C@@H](CC\C4=C\C(=O)\C=C/[C@]34C)[C@@H]1CC[C@]2(O)C(=O)CO
Settings | AUC of viability dose-response curve | cell viability [%]
NOMO1, HPLM + 10% dialyzed FBS | 446 | –
NOMO1, RPMI 5 mM glucose + 10% FBS | 456 | –
NOMO1, RPMI 5 mM glucose + 10% dialyzed FBS | 449 | –
P12-Ichikawa [1], HPLM + 10% dialyzed FBS | 372 | –
P12-Ichikawa [1], RPMI 5 mM glucose + 10% FBS | 353 | –
P12-Ichikawa [1], RPMI 5 mM glucose + 10% dialyzed FBS | 349 | –
P12-Ichikawa [4], 0.000781 µM | – | 128
P12-Ichikawa [4], 0.00234 µM | – | 118
P12-Ichikawa [4], 0.00702 µM | – | 119
P12-Ichikawa [4], 0.0211 µM | – | 121
P12-Ichikawa [4], 0.0632 µM | – | 117
P12-Ichikawa [4], 0.19 µM | – | 107
P12-Ichikawa [4], 0.569 µM | – | 88.2
P12-Ichikawa [4], 1.71 µM | – | 69.7
P12-Ichikawa [4], 5.12 µM | – | 57.9
P12-Ichikawa [4], 15.4 µM | – | 52
P12-Ichikawa [4], 46.1 µM | – | 14
SEM cells [2], HPLM + 10% dialyzed FBS | 389 | –
SEM cells [2], RPMI 5 mM glucose + 10% FBS | 380 | –
SEM cells [2], RPMI 5 mM glucose + 10% dialyzed FBS | 359 | –

cell viability [%], SEM cells [3]
Settings | HPLM + 10% dialyzed FBS | RPMI 5 mM glucose + 10% FBS
0.000781 µM | 113 | 118
0.00234 µM | 112 | 115
0.00702 µM | 119 | 114
0.0211 µM | 118 | 143
0.0632 µM | 129 | 123
0.19 µM | 118 | 127
0.569 µM | 98.6 | 107
1.71 µM | 102 | 90.1
5.12 µM | 44.8 | 40.9
15.4 µM | 67.2 | 64.9
46.1 µM | 22.6 | 19.6
